Measured values published in patent US20230416258A1, “BENZ[…], AND PREPARATION METHOD THEREFOR AND USE THEREOF” (CHINA PHARMACEUTICAL UNIVERSITY, priority 2020, published 2023).

Tests used:
hCMEC/D3 cells = test: Rate of drug passing through in vitro blood-brain barrier (Transwell); format: in vitro ADME; conditions: hCMEC/D3 monolayer, compound 0.1 mg/mL
Procedure: A Transwell device (pore size: 5.0 μm) was placed in a 24-well cell culture well; then hCMEC/D3 cells at 1×10^5 cells/mL were transferred to the upper microwells of Transwell at 150 μL/well, and cell culture medium was added to the lower microwells. After the bottom was covered by a single layer of the cells, the medium in the wells was replaced with EBM-2 complete medium containing 1% FBS, and the cells were cultured in a CO2 incubator for 10 days until a fully dense single layer of the cells was formed. When a fully dense single layer of the cells was formed, the compound at 0.1 mg/mL was added to the lower medium, and after 5 min, the concentration of the compound in the upper medium was measured to calculate the permeability:
Pcompound%=Cupper compound/Clower compound×100%

SD rats [1] = test: Test for drug-induced disappearance of righting reflex in rats; format: in vivo; conditions: single rapid bolus via tail vein
Text: In anesthetic drug experiments, latency generally refers to the time from the start of administration to the loss of consciousness of the subject. The shorter latency is preferred, indicating a rapid onset of action after administration. The duration of anesthesia generally refers to the duration of time from the loss of consciousness to the restoration of consciousness of the subject. The duration of the drug will vary from animal model to animal species. Too long anesthesia may produce adverse cardiovascular and respiratory responses, such as adverse neurological effects to the subject, including sleepiness and dizziness; meanwhile, too short duration of anesthesia may affect the anesthesia effect, causing problems such as increase of anesthesia dosage during the operation.
SD rats (male, 200-280 g) were randomly grouped and subjected to a single administration by rapid bolus via the tail vein. The latency and duration of righting reflex in the rats were recorded.

SD rats [2] = test: Induction of anesthesia in rats by continuous infusion of drug for 20 min; format: in vivo; conditions: initial dose 20 mg/kg bolus, maintenance dose 0.2 (mg/kg)/min for 20 min, after infusion completed
Procedure: SD rats (male, 200-280 g) were randomly grouped and subjected to administration of an initial dose by rapid bolus via the tail vein, followed by a continuous infusion with a maintenance dose for 20 min.
After the infusion was completed, the duration of the righting reflex and the time from wake-up to recovery in rats were recorded.

KM mice = test: Test for drug-induced disappearance of righting reflex in mice; format: in vivo; conditions: single rapid bolus via tail vein
How it was run: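 Latency to, and duration of, righting reflex loss were recorded after one fast tail-vein bolus. Animals: randomized female KM mice weighing 18–25 g.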

[3] = system: GABA-activated Cl− current (GABAA receptor) in HEK 293T cells; test: Effect of drugs on GABA-activated current in cells by cell patch clamp; format: cell-based; conditions: for EC50: read-out: Positive enhancement EC50 (μM) for 2 μM GABA-induced current, −60 mV; for Enhancement percentage Emax for 2 μM GABA current (within 3-30 μM): −60 mV, corresponding concentration 20 μM
Procedure: Test compounds were dissolved at various concentrations in an extracellular buffer (140 mM NaCl, 4.7 mM KCl, 10 mM HEPES, 2 mM CaCl2), 10 mM glucose, 1 mM MgCl2, pH 7.4). HEK 293T cells were seeded on glass coverslips and cultured in DMEM media at 37° C. with 5% CO2 for 24 h. GABA Cl^− current was subjected to whole cell recording using an HEKA EPC 10USB patch clamp amplifier. 2 μM GABA was used for exciting Cl^− current, with the membrane potential clamped at −60 mV. The cells were treated with the test compound and 2 μM GABA simultaneously, and the induction effect on and Emax of Cl^− current in the same cell were recorded.
Maximum enhancement percentage Emax for 2 μM GABA current and corresponding concentration (μM): 100% for normal humans. The greater the percentage, the lower the corresponding concentration, and the greater the depth of anesthesia.

Row | Molecule | In vitro blood-brain barrier, compound permeability at 5 min (hCMEC/D3 cells) [%] | Latency (SD rats [1]) [min] | Duration of anesthesia (SD rats [2]) [min] | Time from wake-up to recovery (SD rats [2]) [min] | Duration (KM mice; 30 mg/kg) [min] | Latency (KM mice; 30 mg/kg) [min] | EC50 [3] [µM] | Enhancement percentage Emax for 2 μM GABA current (within 3-30 μM) [3] | Duration (KM mice; 60 mg/kg) [min] | Latency (KM mice; 60 mg/kg) [min] | Duration (KM mice; 100 mg/kg) [min] | Latency (KM mice; 100 mg/kg) [min]
1 | COC(=O)CC[C@@H]1N=C(c2ccccc2F)c2cc(Cl)ccc2-n2c(S)nnc21 [Compound 1, methyl (S)-3-(8-chloro-6-(2-fluorophenyl)-1-mercapto-4H-benzo[f][1,2,4]triazolo[4,3-a][1,4]diazepin-4-yl)propionate] | 72.2 | 0.25 | 2.82 | 11.2 | 3.51 | 0.26 | 0.85 | 216% (20 μM) | – | – | – | –
2 | COC(=O)CC[C@@H]1N=C(c2ccccc2F)c2cc([N+](=O)[O-])ccc2-n2c(SC)nnc21 [Compound 10, methyl (S)-3-(8-nitro-6-(2-fluorophenyl)-1-(methylthio)-4H-benzo[f][1,2,4]triazolo[4,3-a][1,4]diazepin-4-yl)propionate] | 58.7 | 0.32 | 5.35 | 13.6 | 3.15 | 0.76 | 0.67 | 202% (20 μM) | – | – | – | –
3 | CCSc1nnc2n1-c1ccc([N+](=O)[O-])cc1C(c1ccccc1F)=N[C@H]2CCC(=O)OC [Compound 13, methyl (S)-3-(8-nitro-6-(2-fluorophenyl)-1-(ethylthio)-4H-benzo[f][1,2,4]triazolo[4,3-a][1,4]diazepin-4-yl)propionate] | 81.6 | 0.58 | 5.22 | 11.4 | 2.87 | 0.23 | 0.58 | 246% (20 μM) | – | – | – | –
4 | COC(=O)CC[C@@H]1N=C(c2ccccc2Cl)c2cc(Cl)ccc2-n2c(SC)nnc21 [Compound 23, methyl (S)-3-(8-chloro-6-(2-chlorophenyl)-1-(methylthio)-4H-benzo[f][1,2,4]triazolo[4,3-a][1,4]diazepin-4-yl)propionate] | 65.3 | 0.36 | 7.22 | 13.2 | – | – | 0.52 | 278% (20 μM) | 8.46 | 0.25 | 14.6 | 0.16
5 | COC(=O)CC[C@@H]1N=C(c2ccccc2Cl)c2cc(Br)ccc2-n2c(SC)nnc21 [Compound 24, methyl (S)-3-(8-bromo-6-(2-chlorophenyl)-1-(methylthio)-4H-benzo[f][1,2,4]triazolo[4,3-a][1,4]diazepin-4-yl)propionate] | 73.4 | 0.28 | 15.6 | 22.3 | – | – | 0.48 | 282% (20 μM) | 6.83 | 0.24 | – | –
6 | COC(=O)CC[C@@H]1N=C(c2ccccc2Cl)c2cc([N+](=O)[O-])ccc2-n2c(SC)nnc21 [Compound 25, methyl (S)-3-(8-nitro-6-(2-chlorophenyl)-1-(methylthio)-4H-benzo[f][1,2,4]triazolo[4,3-a][1,4]diazepin-4-yl)propionate] | 81.5 | 0.45 | 7.35 | 10.2 | – | – | 0.64 | 242% (20 μM) | 5.89 | 0.31 | – | –
7 | CCSc1nnc2n1-c1ccc(Cl)cc1C(c1ccccc1Cl)=N[C@H]2CCC(=O)OC [Compound 26, methyl (S)-3-(8-chloro-6-(2-chlorophenyl)-1-(ethylthio)-4H-benzo[f][1,2,4]triazolo[4,3-a][1,4]diazepin-4-yl)propionate] | 52.8 | 0.36 | 8.22 | 9.46 | 3.57 | 1.5 | 0.71 | 249% (20 μM) | 8.06 | 0.18 | – | –
8 | CCCSc1nnc2n1-c1ccc(Cl)cc1C(c1ccccc1Cl)=N[C@H]2CCC(=O)OC [Compound 29, methyl (S)-3-(8-chloro-6-(2-chlorophenyl)-1-(propylthio)-4H-benzo[f][1,2,4]triazolo[4,3-a][1,4]diazepin-4-yl)propionate] | 77.6 | 0.86 | 9.18 | 13.6 | 9.25 | 0.57 | 0.74 | 251% (20 μM) | – | – | – | –
9 | COC(=O)CC[C@@H]1N=C(c2ccccc2Cl)c2cc([N+](=O)[O-])ccc2-n2c(SCCO)nnc21 [Compound 34, methyl (S)-3-(8-nitro-6-(2-chlorophenyl)-1-((2-hydroxyethyl)thio)-4H-benzo[f][1,2,4]triazolo[4,3-a][1,4]diazepin-4-yl)propionate] | 85.6 | 0.22 | 48.2 | 35.6 | 21.9 | 0.3 | 0.38 | 302% (20 μM) | – | – | – | –
10 | COC(=O)CC[C@@H]1N=C(c2ccccn2)c2cc(Br)ccc2-n2c1n[nH]c2=S [Tautomer of compound 3, methyl (S)-3-(8-bromo-6-(pyridin-2-yl)-1-thio-2,4-dihydro-1H-benzo[f][1,2,4]triazolo[4,3-a][1,4]diazepin-4-yl)propionate] | – | – | – | – | 8.27 | 0.65 | – | – | – | – | – | –
11 | COC(=O)CC[C@@H]1N=C(c2ccccc2)c2ccccc2-n2c1n[nH]c2=S [Tautomer of compound 5, methyl (S)-3-(6-phenyl-1-thio-2,4-dihydro-1H-benzo[f][1,2,4]triazolo[4,3-a][1,4]diazepin-4-yl)propionate] | – | – | – | – | 7.82 | 0.73 | – | – | – | – | – | –
12 | COC(=O)CC[C@@H]1N=C(c2ccc(F)cc2)c2ccccc2-n2c1n[nH]c2=S [Tautomer of compound 6, methyl (S)-3-(6-(4-fluorophenyl)-1-thio-2,4-dihydro-1H-benzo[f][1,2,4]triazolo[4,3-a][1,4]diazepin-4-yl)propionate] | – | – | – | – | 8.84 | 0.73 | – | – | – | – | – | –
13 | COC(=O)CC[C@@H]1N=C(c2ccccc2)c2cc(Cl)ccc2-n2c1n[nH]c2=S [Tautomer of compound 7, methyl (S)-3-(8-chloro-6-phenyl-1-thio-2,4-dihydro-1H-benzo[f][1,2,4]triazolo[4,3-a][1,4]diazepin-4-yl)propionate] | – | – | – | – | 9.22 | 0.95 | – | – | – | – | – | –
14 | methyl (S)-3-(8-chloro-6-(2-chlorophenyl)-1-(2-((4-methylpiperidin-2-carbonyl)ethyl)thio)-4H-benzo[f][1,2,4]triazolo[4,3-a][1,4]diazepin-4-yl)propionate [Compound 136] | – | – | – | – | 17.5 | 0.36 | – | – | – | – | – | –
